# Source: patent US8192962B2, “Processes for detecting toxic substances” (Daikin Industries, Ltd., priority 2001, dated 2012)
# Tested on: Metabolism protein genes
# Experiment: DNA chip mRNA expression in yeast, metabolism protein genes (Table 7)
# Format: cell-based, Saccharomyces cerevisiae S288C
# In short: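 Value is the scanned fluorescence intensity ratio of exposed versus chemical-free cells. Log-phase S288C yeast in YPD at 25° C. received one toxic substance for two hours, dosed to slow growth without killing; Cy3/Cy5-labeled cDNA from oligo-dT-purified mRNA was hybridized to a whole-genome chip at 65° C.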
compound,measurement,setting,value
"COc1cc(CNC(=O)CCCCC=CC(C)C)ccc1O [(12), 8-methyl-N-vanillyl-6-nonenamide]",level of expressed mRNA in the presence/in the absence of chemical substance,yeast gene YJR143C,0.6
same,The level of expressed mRNA in the presence of chemical substance/The level of expressed mRNA in the absence of chemical substance,yeast gene YJR148W,0.8
same,The level of expressed mRNA in the presence of chemical substance/The level of expressed mRNA in the absence of chemical substance,yeast gene YJR155W,1.0
same,The level of expressed mRNA in the presence of chemical substance/The level of expressed mRNA in the absence of chemical substance,yeast gene YKL035W,1.0
same,level of expressed mRNA in the presence/in the absence of chemical substance,yeast gene YKL060C,1.3
same,The level of expressed mRNA in the presence of chemical substance/The level of expressed mRNA in the absence of chemical substance,yeast gene YKL091C,1.3
same,The level of expressed mRNA in the presence of chemical substance/The level of expressed mRNA in the absence of chemical substance,yeast gene YKL104C,1.6
same,level of expressed mRNA in the presence/in the absence of chemical substance,yeast gene YKL148C,0.8
same,The level of expressed mRNA in the presence of chemical substance/The level of expressed mRNA in the absence of chemical substance,yeast gene YKL152C,1.5
same,level of expressed mRNA in the presence/in the absence of chemical substance,yeast gene YKL157W,1.0
same,The level of expressed mRNA in the presence of chemical substance/The level of expressed mRNA in the absence of chemical substance,yeast gene YKL213C,0.9
same,The level of expressed mRNA in the presence of chemical substance/The level of expressed mRNA in the absence of chemical substance,yeast gene YKL215C,1.0
same,level of expressed mRNA in the presence/in the absence of chemical substance,yeast gene YKR034W,0.7
same,The level of expressed mRNA in the presence of chemical substance/The level of expressed mRNA in the absence of chemical substance,yeast gene YKR039W,1.5
same,The level of expressed mRNA in the presence of chemical substance/The level of expressed mRNA in the absence of chemical substance,yeast gene YLL058W,1.0
same,level of expressed mRNA in the presence/in the absence of chemical substance,yeast gene YLR006C,0.7
same,level of expressed mRNA in the presence/in the absence of chemical substance,yeast gene YLR044C,1.4
same,level of expressed mRNA in the presence/in the absence of chemical substance,yeast gene YLR056W,0.9
same,level of expressed mRNA in the presence/in the absence of chemical substance,yeast gene YLR058C,0.4
same,level of expressed mRNA in the presence/in the absence of chemical substance,yeast gene YLR081W,1.0
same,level of expressed mRNA in the presence/in the absence of chemical substance,yeast gene YLR089C,0.6
same,The level of expressed mRNA in the presence of chemical substance/The level of expressed mRNA in the absence of chemical substance,yeast gene YLR180W,0.6
same,The level of expressed mRNA in the presence of chemical substance/The level of expressed mRNA in the absence of chemical substance,yeast gene YLR273C,0.9
same,level of expressed mRNA in the presence/in the absence of chemical substance,yeast gene YLR284C,0.6
same,The level of expressed mRNA in the presence of chemical substance/The level of expressed mRNA in the absence of chemical substance,yeast gene YLR299W,1.0
same,The level of expressed mRNA in the presence of chemical substance/The level of expressed mRNA in the absence of chemical substance,yeast gene YLR300W,0.5
same,level of expressed mRNA in the presence/in the absence of chemical substance,yeast gene YLR304C,1.0
same,The level of expressed mRNA in the presence of chemical substance/The level of expressed mRNA in the absence of chemical substance,yeast gene YLR307W,0.7
same,The level of expressed mRNA in the presence of chemical substance/The level of expressed mRNA in the absence of chemical substance,yeast gene YLR348C,0.9
same,level of expressed mRNA in the presence/in the absence of chemical substance,yeast gene YLR354C,1.2
same,level of expressed mRNA in the presence/in the absence of chemical substance,yeast gene YLR372W,0.6
same,level of expressed mRNA in the presence/in the absence of chemical substance,yeast gene YML022W,0.6
same,The level of expressed mRNA in the presence of chemical substance/The level of expressed mRNA in the absence of chemical substance,yeast gene YML054C,1.8
same,The level of expressed mRNA in the presence of chemical substance/The level of expressed mRNA in the absence of chemical substance,yeast gene YML070W,1.3
same,The level of expressed mRNA in the presence of chemical substance/The level of expressed mRNA in the absence of chemical substance,yeast gene YML100W,1.2
same,The level of expressed mRNA in the presence of chemical substance/The level of expressed mRNA in the absence of chemical substance,yeast gene YMR008C,1.1
same,level of expressed mRNA in the presence/in the absence of chemical substance,yeast gene YMR011W,0.8
same,level of expressed mRNA in the presence/in the absence of chemical substance,yeast gene YMR015C,0.9
same,The level of expressed mRNA in the presence of chemical substance/The level of expressed mRNA in the absence of chemical substance,yeast gene YMR020W,1.1
same,level of expressed mRNA in the presence/in the absence of chemical substance,yeast gene YMR083W,0.7
same,The level of expressed mRNA in the presence of chemical substance/The level of expressed mRNA in the absence of chemical substance,yeast gene YMR105C,1.7
same,The level of expressed mRNA in the presence of chemical substance/The level of expressed mRNA in the absence of chemical substance,yeast gene YMR189W,0.6
same,level of expressed mRNA in the presence/in the absence of chemical substance,yeast gene YMR205C,1.1
same,level of expressed mRNA in the presence/in the absence of chemical substance,yeast gene YMR261C,0.9
same,The level of expressed mRNA in the presence of chemical substance/The level of expressed mRNA in the absence of chemical substance,yeast gene YMR271C,1.3
same,The level of expressed mRNA in the presence of chemical substance/The level of expressed mRNA in the absence of chemical substance,yeast gene YMR296C,0.8
same,level of expressed mRNA in the presence/in the absence of chemical substance,yeast gene YMR323W,1.2
same,The level of expressed mRNA in the presence of chemical substance/The level of expressed mRNA in the absence of chemical substance,yeast gene YNL012W,1.3
same,level of expressed mRNA in the presence/in the absence of chemical substance,yeast gene YNL025C,0.8
same,The level of expressed mRNA in the presence of chemical substance/The level of expressed mRNA in the absence of chemical substance,yeast gene YNL045W,0.9
same,The level of expressed mRNA in the presence of chemical substance/The level of expressed mRNA in the absence of chemical substance,yeast gene YNL104C,1.1
same,The level of expressed mRNA in the presence of chemical substance/The level of expressed mRNA in the absence of chemical substance,yeast gene YNL106C,0.8
same,The level of expressed mRNA in the presence of chemical substance/The level of expressed mRNA in the absence of chemical substance,yeast gene YNL169C,1.0
same,level of expressed mRNA in the presence/in the absence of chemical substance,yeast gene YNL192W,1.1
same,The level of expressed mRNA in the presence of chemical substance/The level of expressed mRNA in the absence of chemical substance,yeast gene YNL231C,1.8
same,The level of expressed mRNA in the presence of chemical substance/The level of expressed mRNA in the absence of chemical substance,yeast gene YNL322C,0.7
same,The level of expressed mRNA in the presence of chemical substance/The level of expressed mRNA in the absence of chemical substance,yeast gene YNL331C,0.9
same,The level of expressed mRNA in the presence of chemical substance/The level of expressed mRNA in the absence of chemical substance,yeast gene YNL332W,1.2
same,The level of expressed mRNA in the presence of chemical substance/The level of expressed mRNA in the absence of chemical substance,yeast gene YNR019W,1.0
same,The level of expressed mRNA in the presence of chemical substance/The level of expressed mRNA in the absence of chemical substance,yeast gene YNR033W,1.1
same,The level of expressed mRNA in the presence of chemical substance/The level of expressed mRNA in the absence of chemical substance,yeast gene YNR059W,0.8
same,The level of expressed mRNA in the presence of chemical substance/The level of expressed mRNA in the absence of chemical substance,yeast gene YOL058W,1.3
same,level of expressed mRNA in the presence/in the absence of chemical substance,yeast gene YOL086C,1.3
same,level of expressed mRNA in the presence/in the absence of chemical substance,yeast gene YOL108C,1.0
same,level of expressed mRNA in the presence/in the absence of chemical substance,yeast gene YOL116W,0.6
same,The level of expressed mRNA in the presence of chemical substance/The level of expressed mRNA in the absence of chemical substance,yeast gene YOL126C,1.1
same,The level of expressed mRNA in the presence of chemical substance/The level of expressed mRNA in the absence of chemical substance,yeast gene YOL153C,1.9
same,level of expressed mRNA in the presence/in the absence of chemical substance,yeast gene YOL156W,0.9
same,The level of expressed mRNA in the presence of chemical substance/The level of expressed mRNA in the absence of chemical substance,yeast gene YOL165C,0.8
same,level of expressed mRNA in the presence/in the absence of chemical substance,yeast gene YOR002W,0.5
same,level of expressed mRNA in the presence/in the absence of chemical substance,yeast gene YOR085W,0.8
same,The level of expressed mRNA in the presence of chemical substance/The level of expressed mRNA in the absence of chemical substance,yeast gene YOR099W,1.1
same,level of expressed mRNA in the presence/in the absence of chemical substance,yeast gene YOR103C,1.2
same,level of expressed mRNA in the presence/in the absence of chemical substance,yeast gene YOR108W,0.7
same,level of expressed mRNA in the presence/in the absence of chemical substance,yeast gene YOR128C,0.5
same,The level of expressed mRNA in the presence of chemical substance/The level of expressed mRNA in the absence of chemical substance,yeast gene YOR130C,0.9
same,level of expressed mRNA in the presence/in the absence of chemical substance,yeast gene YOR142W,0.8
same,level of expressed mRNA in the presence/in the absence of chemical substance,yeast gene YOR176W,1.3
same,level of expressed mRNA in the presence/in the absence of chemical substance,yeast gene YOR178C,1.7
same,level of expressed mRNA in the presence/in the absence of chemical substance,yeast gene YOR251C,0.9
same,The level of expressed mRNA in the presence of chemical substance/The level of expressed mRNA in the absence of chemical substance,yeast gene YOR336W,1.0
same,The level of expressed mRNA in the presence of chemical substance/The level of expressed mRNA in the absence of chemical substance,yeast gene YOR347C,1.2
same,level of expressed mRNA in the presence/in the absence of chemical substance,yeast gene YOR348C,0.7
same,The level of expressed mRNA in the presence of chemical substance/The level of expressed mRNA in the absence of chemical substance,yeast gene YPL017C,1.0
same,level of expressed mRNA in the presence/in the absence of chemical substance,yeast gene YPL028W,1.4
same,level of expressed mRNA in the presence/in the absence of chemical substance,yeast gene YPL057C,1.0
same,level of expressed mRNA in the presence/in the absence of chemical substance,yeast gene YPL135W,1.1
same,level of expressed mRNA in the presence/in the absence of chemical substance,yeast gene YPL148C,0.7
same,The level of expressed mRNA in the presence of chemical substance/The level of expressed mRNA in the absence of chemical substance,yeast gene YPR026W,1.2
same,level of expressed mRNA in the presence/in the absence of chemical substance,yeast gene YPR113W,0.7
same,level of expressed mRNA in the presence/in the absence of chemical substance,yeast gene YPR165W,0.8
same,The level of expressed mRNA in the presence of chemical substance/The level of expressed mRNA in the absence of chemical substance,yeast gene YPR167C,1.3
same,level of expressed mRNA in the presence/in the absence of chemical substance,yeast gene YPR183W,1.2
